Data reported in PMC4791274, “Cerdulatinib, a novel dual SYK/JAK kinase inhibitor, has broad anti-tumor activity in both ABC and GCB types of diffuse large B cell lymphoma” (Oncotarget, 2015).

Legend:
ITK = settings: biochemical assay; cited from earlier work
TBK1 = settings: biochemical assay; cited from earlier work
[1] = test system: primary human DLBCL samples; assay: MTT viability of primary DLBCL samples; type: cell-based; settings: 0.5 μM and 1 μM, 72 h, six primary samples
Experimental: GCB cell lines OCI-LY1, OCI-LY4, OCI-LY8, OCI-LY18, SUDHL6 and VAL were cultured in Iscove's Modified Dulbecco's Medium (IMDM) supplemented with 20% Fetal Bovine Serum (FBS) and 100 μg/mL penicillin/streptomycin. ABC cell lines SUDHL2 and HBL1 were cultured in RPMI1640 supplemented with 20% FBS and 100 μg/mL penicillin/streptomycin. OCI-LY3 cells were grown in RPMI1640 supplemented with 20% FBS, 100 μg/ml penicillin/streptomycin and HEPES. ABC cell lines OCI-LY10 was cultured in Iscove's Modified Dulbecco's Medium (IMDM) supplemented with 20% human serum and 100 μg/mL penicillin/streptomycin. ABC cell line U2932 was cultured in high glucose RPMI1640 supplemented with 20% FBS, 100 μg/ml penicillin/streptomycin. All cells were maintained in a humidified 37°C/5% CO2 incubator. […]
(§1) DLBCL cell lines were treated with various concentrations of cerdulatinib for up to 72 h. The metabolic activities of cells were determined with MTT assay according to manufacturer's instruction (Roche Applied Science, Indianapolis, IN) at 72 h time point. IC50 was calculated using the Sigma Plot generated with GraphPad Prism 6 software (GraphPad, La Jolla, CA). Cell growth was measured at every 24 h counting live cells with flow cytometry as previously described. Cells were collected every 24 h and cell viability was determined by the PE Annexin V Apoptosis Detection Kit I (BD Biosciences).

MLK1 = settings: biochemical assay; cited from earlier work
ABC DLBCL cell lines = assay: MTT assay, ABC cell lines; type: cell-based; settings: ABC cell lines with relatively higher total and phosphorylated STAT3, 72 h
Experimental: as §1

In the case of `CCS(=O)(=O)N1CCN(c2ccc(Nc3ncc(C(N)=O)c(NC4CC4)n3)cc2)CC1` [cerdulatinib], the IC50 (ITK) is listed as 194 nM, the IC50 (TBK1) is listed as 10 nM and the “response of primary DLBCL cells (viability, MTT)” value [1] is listed as “responded to cerdulatinib in a concentration-dependent manner”. For the same compound, the IC50 (MLK1) was 5 nM and the IC50 (ABC DLBCL cell lines) was 290 to 1800 nM.
